In brackets after ≈: the same amount, converted by molar mass. Values belong to the compound of their own block, whether it stands above or below them. Activity calls are given as the source filed them. The calls are words filed in the database; no cut-off is given here. Bridge positions count the residues as written; N and C are the ends. Square brackets hold non-standard residues; d marks the D form. Peptide text beside a SMILES is read from it. * marks the point of attachment. ξ: configuration not given here. Hexanoyl(4ξ-Me) = CCC(C)CCC(=O)*; dOrn = NCCC[C@@H](N)C(=O)O; Orn = NCCC[C@H](N)C(=O)O
What was measured:
[1] = Toxicity in male BALB/c mouse assessed as survival rate at 29.2 mg/kg, ip measured after 7 days relative to control; type: organism-based; details: in vivo, time 7 day
Staphylococcus aureus [2] = test: Bactericidal activity against Staphylococcus aureus ATCC 25923 assessed as assessed as eradication of bacterial cells at 1 to 4 times MIC measured after 0.5 to 1 hr by time killing analysis; type: functional, organism-based; details: time 0.5-1 hrs
[3] = Toxicity in male BALB/c mouse assessed as edema in kidney at 46.88 mg/kg, ip administered as single dose by H and E staining based analysis; type: organism-based; details: in vivo
Staphylococcus aureus [4] = test: Antibacterial activity against Staphylococcus aureus ATCC 25923 assessed as fold increase in MIC pretreated with FeCl3 followed by compound addition and measured after 2 hrs by broth microdilution method; type: functional
[5] = Toxicity in male BALB/c mouse assessed as hemorrhage in kidney at 46.88 mg/kg, ip administered as single dose by H and E staining based analysis; type: organism-based; details: in vivo
[6] = Toxicity in male BALB/c mouse assessed as inflammatory cell infiltration in liver at 46.88 mg/kg, ip administered as single dose by H and E staining based analysis; type: organism-based; details: in vivo
Staphylococcus aureus [7] = test: Antibacterial activity against Staphylococcus aureus ATCC 25923 pretreated with 5% mouse serum followed by compound addition and measured after 6 hrs by broth microdilution method (reference value: 8 microM); type: functional
Staphylococcus aureus [8] = test: Antibacterial activity against Staphylococcus aureus ATCC 25923 assessed as fold increase in MIC pretreated with KCl followed by compound addition and measured after 2 hrs by broth microdilution method; type: functional
Staphylococcus aureus [9] = test: Antibacterial activity against Staphylococcus aureus ATCC 25923 pretreated with 10% mouse serum followed by compound addition and measured after 1 hr by broth microdilution method (reference value: 8 microM); type: functional
Pseudomonas aeruginosa [10] = test: Induction of morphological changes in Pseudomonas aeruginosa ATCC 27853 assessed as aggregation at 2 times MIC measured after 0.5 hrs by SEM based analysis; type: functional, organism-based
Staphylococcus aureus [11] = test: Antibacterial activity against Staphylococcus aureus ATCC 25923 pretreated with 2.5% mouse serum followed by compound addition and measured after 6 hrs by broth microdilution method (reference value: 8 microM); type: functional
Staphylococcus aureus [12] = test: Antibacterial activity against Staphylococcus aureus ATCC 25923 pretreated with Mgcl2 followed by compound addition and measured after 2 hrs by broth microdilution method (reference value: 8 microM); type: functional
Staphylococcus aureus [13] = test: Induction of morphological changes in Staphylococcus aureus ATCC 25923 assessed as increase in volume of swelling at 2 times MIC measured after 2 hrs by SEM based analysis; type: functional, organism-based
[14] = Toxicity in male BALB/c mouse assessed as survival rate at 90.9 mg/kg, ip measured after 6 days relative to control; type: organism-based; details: in vivo, time 6 day
Pseudomonas aeruginosa [15] = test: Bactericidal activity against Pseudomonas aeruginosa ATCC 27853 assessed as assessed as eradication of bacterial cells at 1/2 to 1 times MIC measured after 0.5 hr by time killing analysis relative to control; type: functional
Staphylococcus aureus [16] = test: Antibacterial activity against Staphylococcus aureus ATCC 25923 pretreated with 20% mouse serum followed by compound addition and measured after 6 hrs by broth microdilution method (reference value: 8 microM); type: functional
Staphylococcus aureus [17] = test: Antibacterial activity against Staphylococcus aureus ATCC 25923 pretreated with Kcl followed by compound addition and measured after 2 hrs by broth microdilution method (reference value: 8 microM); type: functional
Staphylococcus aureus [18] = test: Antibacterial activity against Staphylococcus aureus ATCC 25923 assessed as fold increase in MIC pretreated with Na-cl followed by compound addition and measured after 2 hrs by broth microdilution method; type: functional
Cell membrane [19] = test: Induction of cytoplasmic membrane depolarization in Pseudomonas aeruginosa ATCC 27853 assessed as increase in fluorescence intensity at 2 to 4 times MIC measured upto 12 min by DiSC3-5 dye based fluorescence method; type: cell membranes
Staphylococcus aureus [20] = test: Antibacterial activity against Staphylococcus aureus ATCC 25923 pretreated with Fecl3 followed by compound addition and measured after 2 hrs by broth microdilution method (reference value: 64 microM); type: functional
Pseudomonas aeruginosa [21] = test: Antimicrobial activity against Pseudomonas aeruginosa ATCC 27853 assessed as reduction in microbial growth at 2 times MIC measured for 18 hrs in presence of 64 microg/ml LPS; type: functional, organism-based
Staphylococcus aureus [22] = test: Antibacterial activity against Staphylococcus aureus ATCC 25923 pretreated with 20% mouse serum followed by compound addition and measured after 6 hrs by broth microdilution method (reference value: 64 microM); type: functional
Staphylococcus aureus [23] = test: Antibacterial activity against Staphylococcus aureus ATCC 25923 pretreated with 5% mouse serum followed by compound addition and measured after 1 hr by broth microdilution method (reference value: 64 microM); type: functional
Staphylococcus aureus [24] = test: Antibacterial activity against Staphylococcus aureus ATCC 25923 pretreated with 10% mouse serum followed by compound addition and measured after 1 hr by broth microdilution method (reference value: 64 microM); type: functional
Staphylococcus aureus [25] = test: Antibacterial activity against Staphylococcus aureus ATCC 25923 pretreated with 20% mouse serum followed by compound addition and measured after 1 hr by broth microdilution method (reference value: 64 microM); type: functional
Staphylococcus aureus [26] = test: Induction of morphological changes in Staphylococcus aureus ATCC 25923 assessed as leakage of cellular content at 2 times MIC measured after 0.5 hrs by SEM based analysis; type: functional, organism-based
Pseudomonas aeruginosa [27] = test: Antibacterial activity against Pseudomonas aeruginosa ATCC 27853 assessed as fold increase in MIC pretreated with 2.5 to 20% mouse serum followed by compound addition and measured after 6 hr by broth microdilution method; type: functional
Staphylococcus aureus [28] = test: Antibacterial activity against Staphylococcus aureus ATCC 25923 pretreated with 2.5% mouse serum followed by compound addition and measured after 6 hrs by broth microdilution method (reference value: 64 microM); type: functional
Pseudomonas aeruginosa [29] = test: Bactericidal activity against Pseudomonas aeruginosa ATCC 27853 assessed as assessed as eradication of bacterial cells at 1/2 to 1 times MIC measured after 1 hr by time killing analysis relative to control; type: functional
Cell membrane [30] = test: Induction of cytoplasmic membrane depolarization in Staphylococcus aureus ATCC 25923 assessed as increase in fluorescence intensity at 1/2 to 4 times MIC measured within 1 min by DiSC3-5 dye based fluorescence method; type: cell membranes
Cell membrane [31] = test: Induction of cytoplasmic membrane depolarization in Pseudomonas aeruginosa ATCC 27853 assessed as increase in fluorescence intensity at 4 times MIC measured upto 12 min by DiSC3-5 dye based fluorescence method; type: cell membranes
Pseudomonas aeruginosa [32] = test: Bactericidal activity against Pseudomonas aeruginosa ATCC 27853 assessed as assessed as eradication of bacterial cells at 2 to 4 times MIC measured after 0.5 hr by time killing analysis relative to control; type: functional, organism-based
Staphylococcus aureus [33] = test: Antibacterial activity against Staphylococcus aureus ATCC 25923 pretreated with 2.5% mouse serum followed by compound addition and measured after 1 hrs by broth microdilution method (reference value: 16 microM); type: functional, organism-based
Staphylococcus aureus [34] = test: Antibacterial activity against Staphylococcus aureus ATCC 25923 pretreated with FeCl3 followed by compound addition and measured after 2 hrs by broth microdilution method (reference value: 16 microM); type: functional, organism-based
Staphylococcus aureus [35] = test: Antibacterial activity against Staphylococcus aureus ATCC 25923 pretreated with ZnCl2 followed by compound addition and measured after 2 hrs by broth microdilution method (reference value: 16 microM); type: functional, organism-based

Compound: CCCCCCCCCC(=O)N[C@H](CCCN)C(=O)N[C@H](Cc1ccc(O)cc1)C(=O)N[C@H](Cc1c[nH]c2ccccc12)C(=O)N[C@H](CCCN)C(=O)N[C@@H](CCCN)C(=O)NCC(=O)N[C@H](CCCN)C(=O)N[C@@H](Cc1c[nH]c2ccccc12)C(=O)N[C@H](C(=O)N[C@H](C(=O)NCC(=O)N[C@@H](CO)C(=O)O)[C@@H](C)CC)[C@@H](C)O
- survival at 168 h [1]: 100%
- Activity (Staphylococcus aureus [2]): Active
- Activity [3]: Toxic
- fold change (FC) (Staphylococcus aureus [4]): 2
- Activity [5]: Toxic
- Activity [6]: Toxic
- MIC (Staphylococcus aureus [7]): 16 µM (≈ 25.3 µg/mL)
- fold change (FC) (Staphylococcus aureus [8]): 2
- MIC (Staphylococcus aureus [9]): 32 µM (≈ 50.6 µg/mL)
- Activity (Pseudomonas aeruginosa [10]): Active
- MIC (Staphylococcus aureus [11]): 16 µM (≈ 25.3 µg/mL)
- MIC (Staphylococcus aureus [12]): 8 µM (≈ 12.6 µg/mL)
- Activity (Staphylococcus aureus [13]): Active
- survival at 144 h [14]: 12.5%
- Activity (Pseudomonas aeruginosa [15]): 100%
- MIC (Staphylococcus aureus [16]): > 128 µM
- MIC (Staphylococcus aureus [17]): 8 µM (≈ 12.6 µg/mL)

- Activity (Cell membrane [19]): Active
- MIC (Staphylococcus aureus [20]): 64 µM (≈ 97.3 µg/mL)
- MIC (Staphylococcus aureus [22]): 128 µM (≈ 195 µg/mL)
- MIC (Staphylococcus aureus [23]): 64 µM (≈ 97.3 µg/mL)
- MIC (Staphylococcus aureus [24]): 64 µM (≈ 97.3 µg/mL)
- MIC (Staphylococcus aureus [25]): 128 µM (≈ 195 µg/mL)
- MIC (Staphylococcus aureus [28]): 128 µM (≈ 195 µg/mL)
- Activity (Cell membrane [30]): Active
Compound: CCC(C)CCC(=O)N[C@H](CC(N)=O)C(=O)N[C@H](Cc1ccc(O)cc1)C(=O)N[C@H](Cc1c[nH]c2ccccc12)C(=O)N[C@H](CCCN)C(=O)N[C@@H](CCCN)C(=O)NCC(=O)N[C@H](CCCN)C(=O)N[C@@H](Cc1c[nH]c2ccccc12)C(=O)N[C@@H]1C(=O)N[C@@H]([C@@H](C)CC)C(=O)NCC(=O)N[C@@H](CO)C(=O)O[C@@H]1C (stereo not given in full) ({Hexanoyl(4ξ-Me)}-[dN][dY][dW][dOrn][Orn]G[dOrn]WTIGS; ester 9-C)
- fold change (FC) (Staphylococcus aureus [18]): 2
- Activity (Pseudomonas aeruginosa [21]): inactive
- Activity (Staphylococcus aureus [26]): Active
- fold change (FC) (Pseudomonas aeruginosa [27]): 4
- Activity (Pseudomonas aeruginosa [29]): 100%

Compound: POLYMYXIN B
- Activity (Cell membrane [31]): inactive
- Activity (Pseudomonas aeruginosa [32]): 100%
- MIC (Staphylococcus aureus [33]): 16 µM
- MIC (Staphylococcus aureus [34]): 8 µM
- MIC (Staphylococcus aureus [35]): 32 µM
